Patent US11058635B1, “Oral administration of 5-FU in a gelling nanosuspension for targeted delivery to treat colorectal cancers” (King Abdulaziz University, priority 2020, dated 2021)

Assay: In vitro drug release, pH-profile dialysis bag method
Assay type: physicochemical
Settings: for overall pH-profile percentage release more than NAH-CRG-FU by: difference over 8 hrs
Source text: The ultimate goals were to develop a formula with in-soluble gel forming ability in the gastric media with good coherence, to form a sedimented gel with a density >1 in the stomach, to increase the gastric emptying rate and to avoid the gastric adverse effects and metabolism of FU by keeping a minimal gastric release or coating it. On other hand, the formula needed to dissolve and release the drug and gel in the simulated intestinal media, especially the colonic area. The main target was to design a system that was able to inhibit release of the drug in the stomach (i.e., release at a lower rate than the release rate in the intestinal-colonic area). Formulation was prepared according to Table 2 and the pattern of 5-FU release in the pH-profile differed from that of free 5-FU. After preparation of different formulations with manipulation of NA amounts (18, 36 and 72 mg/mL) and CRG types (CRGk and CRGL), the drug release optimization confirmed that the optimum formulation with respect to FU release curve and parameters was the NAH-CRG-FU shown in Table 2 and FIG. 6. […] The comparisons between the release patterns of the NAH-CRG-FU formulation and free drug were done using the simulated gastric release percentage (%)-first 2 hrs, simulated intestinal-colonic release percentage-subsequent 6 hrs (summation of the proximal, distal intestine and colon percentage simulated release patterns), mean dissolution time (MDT) of simulated pre-intestinal region (gastric) and simulated intestine-colonic area. Furthermore, mean dissolution times for 1st 2 hrs of pre-intestinal (Pre-intestinal MDT) and from the 2nd to 8th hr of the release profile (Intestinal-colonic MDT) were obtained by the following equation (Bani-Jaber and Abdullah 2020, Costa and Lobo 2001).
[formula] wherein (i) expressed the release sample numbers, (n) referred to the number of release times, (t) was the mid-point time in the interval (ti-1-ti), (ΔM) was the released amount of drug in the interval (ti-1-ti). The MDT larger values could indicate a slower drug release rate. The predicted rate of release equates to the rate of dissolution, and this rate has a direct effect on the number of daily oral doses and any adverse effects associated therewith.
5-FU was prepared in a formulation of the NAH-CGR-FU gelling nanosuspension, as described in the previous Examples. Data from Table 2 was used to prepare a nanosuspension volume of 20 mL. The dose was loaded into a dialysis bag having a cut-off of 12000-14000 Dalton (Spectra/Por® 4-Dialysis membrane, USA). The dialysis bag was placed into a beaker containing 300 mL of release media. The bags were exposed to 0.1N HCl to simulate gastric media having a pH 1.2 for 2 hr, followed by simulated proximal intestine media, which was a phosphate buffer with pH 6.5 for 2 hr. This was followed by media simulating the media of the distal area of the small intestine, which was a phosphate buffer at a pH 6.8 for 2 hr. Finally, the dialysis bags were transferred to a phosphate buffer media having a pH 8 to simulate the media of a descending colon for 2 hrs. The sequential exposure in the different pH media was used to construct a pH dissolution profile. The temperature was constantly controlled at 37±0.5° C. in a water bath shaker of 75 rpm speed. To maintain sink conditions, the dissolution media underwent total replacement with a fresh medium every hour. After drug release optimization of the NA amount and CRG type was determined, the optimum formulation in-soluble gel that was formed in the acidic media was evaluated for the onset of formation and the extent of sedimentation.

- Gastric % Release (0.1N HCl pH 1.2, first 2 hr, 37 C, 75 rpm): 56.60 ± 0.0051%
- higher gastric percentage release than NAH-CRG-FU by (difference free 5-FU minus NAH-CRG-FU, first 2 hrs): 31.55%
- higher intestinal-colonic percentage release than NAH-CRG-FU by (difference free 5-FU minus NAH-CRG-FU, subsequent 6 hrs): 30.68%
- overall pH-profile percentage release more than NAH-CRG-FU by (listed as 5-FU alone): 62.23%
- overall pH-profile percentage release more than NAH-CRG-FU by (listed as 5-FU free): 62.2%
- Pre-Intestinal MDT (mean dissolution time, 1st 2 hrs, pH 1.2, n = 3 ± SD): 0.23 ± 0.0011 h
- Intestinal-Colonic MDT (mean dissolution time, 2nd to 8th hr, pH 6.5, 6.8, 8, n = 3 ± SD): 1.75 ± 0.0051 h
- released after 8 hrs of the pH-profile study (pH-profile 1.2-8, 8 hrs): 95.97%
- Proximal Intestine % Release (phosphate buffer pH 6.5, 2 hr): 23.04 ± 0.0022%
- Distal Intestine % Release (phosphate buffer pH 6.8, 2 hr): 9.08 ± 0.0019%
- Colon % Release (phosphate buffer pH 8, 2 hr): 7.26 ± 0.0014%
- Intestinal-Colonic % Release (subsequent 6 hrs, summation of proximal, distal intestine and colon): 39.37 ± 0.0071%
Compound: O=c1[nH]cc(F)c(=O)[nH]1 [Free 5-FU, 5-fluorouracil]
